Entries after “also recorded” stand apart in the source; their conditions may differ. Blank lines part the entries; values can stand above or below the molecule they belong to.
Assays:
[1] = target: T1, human LPA2 (Homo sapiens, UniProt Q9HBW0); experiment: GTP[γ35S] binding, LPA2-transfected HEK293T cell membranes; type: biochemical; design: expressed in transfected cells; host or cells: HEK293T (transient)
Description: (§1) The appropriate receptor plasmid DNA (encoding mouse LPA1, human LPA2 or human LPA3) was mixed with equal amounts of expression plasmids (pcDNA3) encoding a mutated (C351F) rat Gi2a, cow β1, and γ2 proteins and these DNAs were used to transfect monolayers of HEK293T cells (where ‘T’ indicates expression of the SV-40 virus large T antigen) using the calcium phosphate precipitate method. After about 60 hours, cells were harvested, membranes were prepared, aliquoted and stored at −70° C. until use.
(§2) The GTP[35 γS] assay was performed as described by us previously. Membranes containing 5 ug of protein were incubated in 0.1 ml GTP-binding buffer (in mM: HEPES 50, NaCl 100, MgCl2 10, pH7.5) containing […], […], 0.1 nM GTP[35 γS] (1200 Ci/mmol), and indicated lipid(s) for 30 minutes at 30° C. Samples were analyzed for membrane-bound radionuclide using a Brandel Cell Harvester (Gaithersburg, Md.).
(§3) Membranes prepared from these cells are used to measure GTPγ[^35S] binding as a function of test compound concentration. The resulting dose-response curves provide relative potency (EC50) and efficacy (Emax) for the test compounds.

[2] = target: T2, human LPA3 (Homo sapiens, UniProt Q9UBY5); experiment: GTP[γ35S] binding, LPA3-transfected HEK293T cell membranes; type: biochemical; design: expressed in transfected cells; host or cells: HEK293T (transient); settings: GTP[γ35S] binding
T2 sequence (Q9UBY5 1-353): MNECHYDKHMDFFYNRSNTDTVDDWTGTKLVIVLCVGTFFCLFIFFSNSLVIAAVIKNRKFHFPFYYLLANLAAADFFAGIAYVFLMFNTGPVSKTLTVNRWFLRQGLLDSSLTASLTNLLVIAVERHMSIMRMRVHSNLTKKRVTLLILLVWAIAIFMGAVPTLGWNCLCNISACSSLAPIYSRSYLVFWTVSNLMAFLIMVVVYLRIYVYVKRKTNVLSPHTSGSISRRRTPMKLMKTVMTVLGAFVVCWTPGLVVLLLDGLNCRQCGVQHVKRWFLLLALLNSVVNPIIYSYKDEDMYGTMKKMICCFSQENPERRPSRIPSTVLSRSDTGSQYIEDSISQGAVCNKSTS
Description: as §1, §2
(§4) The X-intercept of the linear transformation is equal to the inverse log of the KI.
as §3

[3] = target: T3, mouse LPA1 (Mus musculus, UniProt P61793); experiment: GTP[γ35S] binding, LPA1-transfected HEK293T (or RH7777) cell membranes; type: biochemical; design: expressed in transfected cells; host or cells: HEK293T (transient); for part of the results RH7777 membranes; settings: GTP[γ35S] binding
Description: as §1, §2, §4, §3

[4] = system: human platelets; experiment: platelet aggregation; type: cell-based; settings: concentrations up to 10 micromolar
[5] = system: Xenopus laevis ooctyes; experiment: chloride conductance / depolarization in Xenopus oocytes, endogenous receptor; type: cell-based; settings: uninjected Xenopus oocytes
Description: (§5) wls-b8L and the other phosphonates were also tested also for activity in three whole cell assays. […] Finally, the activity of wls-b8L in activating a chloride conductance in Xenopus laevis ooctyes was measured.

[6] = target: T3, mouse LPA1; experiment: cAMP accumulation in RH7777 cells stably expressing LPA1; type: cell-based; design: expressed in transfected cells; settings: concentration of 1 μM
Description: Assays for cAMP accumulation were conducted on populations of 5×10^5 cells stimulated with […] in the presence of the phosphodiesterase inhibitor isomethylbutylxanthine (IBMX) for 15 minutes at 30° C. cAMP was measured by automated radioimmunoassay.
Rat hepatoma RH7777 cell monolayers were transfected with the mLPAI plasmid DNA using the calcium phosphate precipitate method and clonal populations expressing the neomycin phosphotransferase gene were selected by addition of geneticin (G418) to the culture media. The RH7777 cells were grown in monolayers at 37° C. in a 5% CO02/95% air atmosphere in growth media consisting of: 90% MEM, 10% fetal bovine serum, 2 mM glutamine and 1 mM sodium pyruvate.
as §5

[7] = target: T2, human LPA3; experiment: chloride conductance in Xenopus oocytes injected with human LPA3 mRNA; type: cell-based; design: expressed in transfected cells; host or cells: Xenopus laevis oocytes, mRNA injection; settings: 10 μM applied to the oocyte surface
Description: as §5

[8] = target: T1, human LPA2; experiment: chloride conductance in Xenopus oocytes injected with human LPA2 mRNA; type: cell-based; design: expressed in transfected cells; host or cells: Xenopus laevis oocytes, mRNA injection; settings: 10 μM applied to the oocyte surface
Description: as §5

[9] = target: T4, LPP3 (PAP2b) (Homo sapiens, UniProt O14495); experiment: LPP inhibition, competition with [32P]LPA; type: biochemical; settings: for rank order of inhibition of the three LPPs: LPP1 (PAP2a), LPP2 (PAP2c), LPP3 (PAP2b)
T4 sequence (O14495 1-311): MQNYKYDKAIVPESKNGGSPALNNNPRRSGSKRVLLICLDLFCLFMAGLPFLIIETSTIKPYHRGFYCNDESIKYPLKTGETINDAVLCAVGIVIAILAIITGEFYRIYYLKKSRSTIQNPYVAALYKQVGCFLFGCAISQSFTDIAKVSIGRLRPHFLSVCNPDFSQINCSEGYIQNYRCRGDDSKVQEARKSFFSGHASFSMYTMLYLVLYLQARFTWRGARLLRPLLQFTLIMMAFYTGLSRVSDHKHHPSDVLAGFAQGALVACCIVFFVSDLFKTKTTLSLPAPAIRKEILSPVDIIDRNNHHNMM
Description: NOHPP was also tested for activity at the three cloned LPPs. Although the phosphonate head group eliminates the possibility of NOHPP acting as a substrate, it is possible that the compound could be a competitive inhibitor.

[10] = system: human platelets; settings: previously reported; cited from earlier work
[11] = system: Xenopus laevis ooctyes; settings: previously reported; cited from earlier work

T3 sequence (P61793 whole entry): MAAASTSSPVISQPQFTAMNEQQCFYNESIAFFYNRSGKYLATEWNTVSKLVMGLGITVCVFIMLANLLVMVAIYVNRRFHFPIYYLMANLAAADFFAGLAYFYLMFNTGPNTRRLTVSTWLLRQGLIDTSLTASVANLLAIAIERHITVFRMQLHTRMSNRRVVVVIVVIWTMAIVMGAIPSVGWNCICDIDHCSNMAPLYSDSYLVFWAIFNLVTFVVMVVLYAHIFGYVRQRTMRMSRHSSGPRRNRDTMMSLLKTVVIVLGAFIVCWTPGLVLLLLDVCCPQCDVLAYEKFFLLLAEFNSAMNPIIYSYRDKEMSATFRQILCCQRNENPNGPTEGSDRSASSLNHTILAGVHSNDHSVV
T1 sequence (Q9HBW0 whole entry): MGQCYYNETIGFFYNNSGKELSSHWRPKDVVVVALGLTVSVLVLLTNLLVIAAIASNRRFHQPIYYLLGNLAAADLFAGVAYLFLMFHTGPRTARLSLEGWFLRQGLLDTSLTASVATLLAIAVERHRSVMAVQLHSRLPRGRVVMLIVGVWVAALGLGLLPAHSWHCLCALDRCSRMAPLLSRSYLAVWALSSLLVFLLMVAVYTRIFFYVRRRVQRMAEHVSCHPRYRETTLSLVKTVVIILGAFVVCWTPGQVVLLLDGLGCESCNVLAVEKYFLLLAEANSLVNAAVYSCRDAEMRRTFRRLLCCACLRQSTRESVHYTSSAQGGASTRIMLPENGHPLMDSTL

antagonist activity at LPA2 ([1]; block of LPA-induced GTP[γ35S] binding): antagonist activity
agonist activity / efficacy relative to LPA at LPA3 [2]: agonist
agonist activity / efficacy relative to LPA at LPA1 [3]: agonist
SMILES: CCCCCCCC/C=C\CCCCCCCC(=O)N[C@@H](COP(=O)(O)O)Cc1ccc(OCc2ccc(CCCCC)cc2)cc1 [VPC31162]

agonist potency relative to LPA at LPA1 [3]: more potent than 1-oleoyl LPA
SMILES: CCCCCCCC/C=C\CCCCCCCC(=O)N[C@H](CN)COP(=O)(O)O [VPC12178]

activation of chloride conductance, endogenous receptor [5]: does not evoke this response
inhibition of cAMP accumulation (agonist efficacy) [6]: fully efficacious
activation of chloride conductance, human LPA3 mRNA injected [7]: very modest response
activation of chloride conductance, human LPA2 mRNA injected [8]: very modest response
SMILES: CCCCCCCC/C=C\CCCCCCCC(=O)NCCCP(=O)(O)O [wls-b8L, (9Z)-N-(3-phosphonopropyl)Octadec-9-enamide]
aggregation of human platelets [4]: does not elicit aggregation
receptor-type selectivity of agonist activity (LPA1 vs LPA2, LPA3) [3]: more potent and efficacious at LPA1 than at either LPA2 or LPA3; also recorded: distinctly more selective regarding its agonist activity at a single LPA receptor (LPA1)

rank order of inhibition of the three LPPs [9]: LPP3>LPP1>>LPP2
inhibition of LPP3 ([9]; NOHPP in competition with 50 nM [32P]LPA): inhibited
SMILES: CCCCCCCC/C=C\CCCCCCCC(=O)NCCC(O)P(=O)(O)O (racemic) [NOHPP, (9Z)-N-(rac-3-hydroxy-3-phosphonopropyl)octadec-9-enamide]
rank order of inhibition of the three LPPs ([9]; listed as VPC12031): markedly better at the PAP2b (LPP3) than PAP2a (LPP1) which in turn is better than PAP2c (LPP2)
agonist activity / efficacy relative to LPA at LPA2 ([1]; GTP[γ35S] binding): as efficacious as; also recorded: fullly efficacious
agonist potency relative to LPA at LPA2 ([1]; GTP[γ35S] binding): somewhat less potent than; also recorded: about one log order less potent
agonist activity / efficacy relative to LPA at LPA3 [2]: far less efficacious; also recorded: little activity
agonist potency relative to LPA at LPA3 [2]: distinctly less potent; also recorded: greater than two log orders less potent
agonist activity / efficacy relative to LPA at LPA1 [3]: as efficacious as; also recorded: fullly efficacious
agonist potency relative to LPA at LPA1 [3]: somewhat less potent than; also recorded: about one log order less potent

SMILES: CCCCCCCCCCCCCCCC(=O)N[C@@H](COP(=O)(O)O)C(=O)O [NASPA, N-palmitoyl serine phosphate]
platelet aggregation (literature) [10]: antagonize
oocyte depolarization (literature) [11]: antagonize

SMILES: CCCCCCCCCCCCCCCC(=O)N[C@@H](CCCC)COP(=O)(O)O [PNPA, N-palmitoyl-norleucinol-1-phosphate]
platelet aggregation (literature) [10]: aggregates human platelets without regard to stereoselectivity

— US7169818B2, “Lysophosphatidic acid receptor agonists and antagonists” (University of Virginia Patent Foundation, priority 2000, dated 2007)
